Earlier results as cited in article PMC4411882, “Developmental Potential for Endomorphin Opioidmimetic Drugs” (International Journal of Medicinal Chemistry, 2012).
Where a SMILES comes first, the peptide text is derived from it. [ ]: non-standard residue; d: D form. The star is where a group is joined. Dmt = Cc1cc(O)cc(C)c1C[CH](N)C(=O)O; NHPhenethyl = c1ccc(CCN*)cc1; NHBn = c1ccc(CN*)cc1; NHPh = c1ccc(N*)cc1

What was measured:
μ-opioid receptor = μ-opioid receptor (Rattus norvegicus, UniProt P33535); design: gene Oprm1; rat brain P2 synaptosomal preparations; species or system rat brain P2 synaptosomal preparations; conditions: read-out: Kiμ
δ-opioid receptor = δ-opioid receptor (Rattus norvegicus, UniProt P33533); design: gene Oprd1; rat brain P2 synaptosomal preparations; species or system rat brain P2 synaptosomal preparations; conditions: read-out: Kiδ
μ-opioid receptor (GPI) = biological target: T1, μ-opioid receptor (GPI) (Cavia porcellus, UniProt P97266); design: species or system guinea pig ileum
T1 construct: gene OPRM1; guinea pig ileum (GPI) bioassay
Excerpt: (§1) Therefore, we substituted hydrophobic groups in lieu of the phenethyl group to develop the class of H-Dmt-Pro-Phe-NH-X ligands (Figure 1).

δ-opioid receptor (MVD) = biological target: T2, δ-opioid receptor (MVD) (Mus musculus, UniProt P32300); design: species or system mouse vas deferens
T2 construct: gene Oprd1; mouse vas deferens (MVD) bioassay
Excerpt: as §1

Sequence of μ-opioid receptor (P33535 whole entry): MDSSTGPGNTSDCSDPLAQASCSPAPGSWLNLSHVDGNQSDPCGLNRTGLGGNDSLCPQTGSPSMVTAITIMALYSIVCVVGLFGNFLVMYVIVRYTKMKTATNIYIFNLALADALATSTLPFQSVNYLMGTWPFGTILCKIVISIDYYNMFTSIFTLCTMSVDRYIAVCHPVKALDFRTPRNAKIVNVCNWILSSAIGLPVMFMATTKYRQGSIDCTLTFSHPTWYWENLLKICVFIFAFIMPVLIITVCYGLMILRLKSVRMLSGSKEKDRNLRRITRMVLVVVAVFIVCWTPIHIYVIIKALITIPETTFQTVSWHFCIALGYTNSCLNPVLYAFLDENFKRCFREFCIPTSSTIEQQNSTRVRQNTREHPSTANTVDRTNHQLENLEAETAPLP
T1 sequence (P97266 whole entry): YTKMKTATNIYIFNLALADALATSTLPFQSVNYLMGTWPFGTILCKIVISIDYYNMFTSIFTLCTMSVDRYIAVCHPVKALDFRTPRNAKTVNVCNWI
Sequence of δ-opioid receptor (P33533 whole entry): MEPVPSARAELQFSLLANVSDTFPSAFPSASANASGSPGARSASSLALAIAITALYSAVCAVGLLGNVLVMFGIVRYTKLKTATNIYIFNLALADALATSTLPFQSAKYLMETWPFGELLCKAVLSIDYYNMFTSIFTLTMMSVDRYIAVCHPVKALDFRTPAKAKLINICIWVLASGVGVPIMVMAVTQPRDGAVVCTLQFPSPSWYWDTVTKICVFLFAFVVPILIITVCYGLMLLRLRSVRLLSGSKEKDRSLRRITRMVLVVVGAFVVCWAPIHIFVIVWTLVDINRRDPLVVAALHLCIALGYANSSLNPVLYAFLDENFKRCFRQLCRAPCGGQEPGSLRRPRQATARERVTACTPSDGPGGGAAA
T2 sequence (P32300 whole entry): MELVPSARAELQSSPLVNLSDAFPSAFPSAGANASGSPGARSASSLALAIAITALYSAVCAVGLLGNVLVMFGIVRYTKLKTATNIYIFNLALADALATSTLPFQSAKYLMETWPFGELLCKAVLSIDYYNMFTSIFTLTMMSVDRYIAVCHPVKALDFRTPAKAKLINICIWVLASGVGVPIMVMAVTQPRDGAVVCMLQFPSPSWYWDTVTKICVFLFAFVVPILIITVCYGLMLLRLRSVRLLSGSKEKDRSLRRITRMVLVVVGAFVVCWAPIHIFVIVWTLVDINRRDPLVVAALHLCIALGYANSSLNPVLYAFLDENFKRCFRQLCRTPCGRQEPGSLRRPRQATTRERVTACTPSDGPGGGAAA

Row | Compound | Ki (μ-opioid receptor) | Ki (δ-opioid receptor) | IC50 (μ-opioid receptor (GPI)) | IC50 (δ-opioid receptor (MVD))
1 | NC(=O)C(Cc1ccccc1)NC(=O)C(Cc1ccccc1)NC(=O)C1CCCN1C(=O)C(N)Cc1ccc(O)cc1 [compound 12, L-D-L-L (EM-2), [D-Pro^2]EM-2] | 512 nM |  |  | 
2 | NC(=O)[C@H](Cc1ccccc1)NC(=O)[C@@H]1CCCN1C(=O)[C@@H](N)Cc1ccc(O)cc1 [compound 18, H-Tyr-Pro-Phe-NH2] (H-Tyr-Pro-Phe-NH2) | 46.1 nM | 15900 nM |  | 
3 | Cc1cc(O)cc(C)c1C[C@H](N)C(=O)N1CCC[C@H]1C(=O)N[C@@H](Cc1c[nH]c2ccccc12)C(=O)N[C@@H](Cc1ccccc1)C(N)=O [compound 19, H-Dmt-Pro-Trp-Phe-NH2, [Dmt^1]EM-1] | 0.054 nM | 5.6 nM | 0.27 nM | > 10000 nM
4 | Cc1cc(O)cc(C)c1C[C@H](N)C(=O)N1CCC[C@H]1C(=O)N[C@@H](Cc1ccccc1)C(=O)N[C@@H](Cc1ccccc1)C(N)=O [compound 20, H-Dmt-Pro-Phe-Phe-NH2, [Dmt^1]EM-2] | 0.15 nM | 28.2 nM | 0.07 nM | 1.87 nM
5 | Cc1cc(O)cc(C)c1CC(N)C(=O)N1CCCC1C(=O)NC(Cc1ccccc1)C(N)=O (stereo not drawn) [compound 21, H-Dmt-Pro-Phe-NH2] (H-[Dmt]-Pro-Phe-NH2; configuration not given here) | 0.12 nM | 53.2 nM | 2.33 nM | 113 nM
6 | Cc1cc(O)cc(C)c1C[C@H](N)C(=O)N1CCC[C@H]1C(=O)N[C@@H](Cc1ccccc1)C(=O)NCCc1ccccc1 [compound 22, H-Dmt-Pro-Phe-NH-C2H4-Ph] (H-[Dmt]-Pro-Phe-NHPhenethyl) | 0.51 nM | 18 nM | 5.03 nM | > 10000 nM
7 | Cc1cc(O)cc(C)c1C[C@H](N)C(=O)N1CCC[C@H]1C(=O)N[C@@H](Cc1ccccc1)C(=O)NCc1ccccc1 [compound 23, H-Dmt-Pro-Phe-NH-Bzl] (H-[Dmt]-Pro-Phe-NHBn) | 0.52 nM | 13.8 nM | 22 nM | > 10000 nM
8 | Cc1cc(O)cc(C)c1C[C@H](N)C(=O)N1CCC[C@H]1C(=O)N[C@@H](Cc1ccccc1)C(=O)Nc1ccccc1 [compound 24, H-Dmt-Pro-Phe-NH-Ph] (H-[Dmt]-Pro-Phe-NHPh) | 1.11 nM | 20.6 nM | 37.7 nM | > 10000 nM
9 | Cc1cc(O)cc(C)c1C[C@H](N)C(=O)N1CCC[C@H]1C(=O)N[C@@H](Cc1ccccc1)C(=O)Nc1cccnc1 [compound 26, H-Dmt-Pro-Phe-NH-3-Pyr] | 0.17 nM | 287 nM | 72.8 nM | > 10000 nM
10 | Cc1cc(O)cc(C)c1C[C@H](N)C(=O)N1CCC[C@H]1C(=O)N[C@@H](Cc1ccccc1)C(=O)Nc1ccccn1 [compound 27, H-Dmt-Pro-Phe-NH-2-Pyr] | 0.13 nM | 157 nM | 15 nM | > 10000 nM
11 | Cc1cc(O)cc(C)c1C[C@H](N)C(=O)N1CCC[C@H]1C(=O)N[C@@H](Cc1ccccc1)C(=O)Nc1cccc2ccccc12 [compound 28, H-Dmt-Pro-Phe-NH-1-Nph] |  | 19.9 nM | 0.49 nM | 5.47 nM
12 | Cc1cc(O)cc(C)c1C[C@H](N)C(=O)N1CCC[C@H]1C(=O)N[C@@H](Cc1ccccc1)C(=O)Nc1cnc2ccccc2c1 [compound 29, H-Dmt-Pro-Phe-NH-3-Qln] | 0.33 nM | 190 nM | 9.14 nM | > 10000 nM
13 | Cc1cc(O)cc(C)c1C[C@H](N)C(=O)N1CCC[C@H]1C(=O)N[C@@H](Cc1ccccc1)C(=O)Nc1cccc2ncccc12 [compound 30, H-Dmt-Pro-Phe-NH-5-Qln] | 0.11 nM | 30 nM | 0.26 nM | 0.616 nM
14 | Cc1cc(O)cc(C)c1C[C@H](N)C(=O)N1CCC[C@H]1C(=O)N[C@@H](Cc1ccccc1)C(=O)Nc1ccc2ncccc2c1 [compound 31, H-Dmt-Pro-Phe-NH-6-Qln] | 0.22 nM | 46.6 nM | 6.21 nM | > 10000 nM
15 | Cc1cc(O)cc(C)c1C[C@H](N)C(=O)N1CCC[C@H]1C(=O)N[C@@H](Cc1ccccc1)C(=O)Nc1cccc2cccnc12 [compound 32, H-Dmt-Pro-Phe-NH-8-Qln] | 0.49 nM | 33.1 nM | 445 nM | 2980 nM
16 | Cc1cc(O)cc(C)c1C[C@H](N)C(=O)N1CCC[C@H]1C(=O)N[C@@H](Cc1ccccc1)C(=O)Nc1cccc2cnccc12 [compound 33, H-Dmt-Pro-Phe-NH-5-Isq] | 0.19 nM | 98.3 nM | 0.94 nM | > 10000 nM
17 | CCc1cc(O)cc(C)c1C[C@H](N)C(=O)N1CCC[C@H]1C(=O)N[C@@H](Cc1ccccc1)C(=O)N[C@@H](Cc1ccccc1)C(N)=O [compound 35, H-Emt-Pro-Phe-Phe-NH2] | 0.063 nM | 55.7 nM | 0.623 nM | 1.08 nM

Row | Compound | Ki (μ-opioid receptor) | Ki (δ-opioid receptor) | IC50 (μ-opioid receptor (GPI)) | IC50 (δ-opioid receptor (MVD))
18 | Cc1cc(O)cc(C(C)C)c1C[C@H](N)C(=O)N1CCC[C@H]1C(=O)N[C@@H](Cc1ccccc1)C(=O)N[C@@H](Cc1ccccc1)C(N)=O [compound 36, H-Imt-Pro-Phe-Phe-NH2] | 0.15 nM | 190 nM | 10.6 nM | 601 nM
19 | CCc1cc(O)cc(CC)c1C[C@H](N)C(=O)N1CCC[C@H]1C(=O)N[C@@H](Cc1ccccc1)C(=O)N[C@@H](Cc1ccccc1)C(N)=O [compound 37, H-Det-Pro-Phe-Phe-NH2] | 0.084 nM | 69.7 nM | 0.903 nM | 47.1 nM
20 | Cc1cc(C)cc(C[C@H](NC(=O)[C@@H]2CCCN2C(=O)[C@@H](N)Cc2c(C)cc(O)cc2C)C(=O)N[C@@H](Cc2ccccc2)C(N)=O)c1 [compound 41, H-Dmt-Pro-^3,5Dmp-Phe-NH2] | 0.11 nM | 11.6 nM | 14.4 nM | > 10000 nM
21 | Cc1cccc(C)c1C[C@H](NC(=O)[C@@H]1CCCN1C(=O)[C@@H](N)Cc1c(C)cc(O)cc1C)C(=O)N[C@@H](Cc1ccccc1)C(N)=O [compound 42, H-Dmt-Pro-Dmp-Phe-NH2] | 0.069 nM | 2.27 nM | 0.12 nM | > 10000 nM
22 | Cc1cc(O)cc(C)c1C[C@H](NC(=O)[C@@H]1CCCN1C(=O)[C@@H](N)Cc1c(C)cc(O)cc1C)C(=O)N[C@@H](Cc1ccccc1)C(N)=O [compound 43, H-Dmt-Pro-Dmt-Phe-NH2] (H-[Dmt]P[Dmt]F-NH2) | 0.092 nM | 80.8 nM | 1.94 nM | > 10000 nM
23 | CCc1cccc(C)c1CC(NC(=O)C1CCCN1C(=O)C(N)Cc1c(C)cc(O)cc1C)C(=O)NC(Cc1ccccc1)C(N)=O (stereo not drawn) [compound 45, H-Dmt-Pro-Emp-Phe-NH2] | 0.21 nM | 3.03 nM | 0.17 nM | 0.51 nM
24 | Cc1cc(O)cc(C)c1C[C@H](N)C(=O)N1CCC[C@H]1C(=O)N[C@@H](Cc1c(C)cccc1C(C)C)C(=O)N[C@@H](Cc1ccccc1)C(N)=O [compound 46, H-Dmt-Pro-Imp-Phe-NH2] | 0.32 nM | 4.61 nM | 0.2 nM | 5.56 nM
25 | C=CCN[C@@H](Cc1c(C)cc(O)cc1C)C(=O)N1CCC[C@H]1C(=O)N[C@@H](Cc1c[nH]c2ccccc12)C(=O)N[C@@H](Cc1ccccc1)C(N)=O [compound 47, [N-allyl-Dmt^1]EM-1] | 0.26 nM | 10.3 nM | > 10000 nM | > 10000 nM
26 | C=CCN[C@@H](Cc1c(C)cc(O)cc1C)C(=O)N1CCC[C@H]1C(=O)N[C@@H](Cc1ccccc1)C(=O)N[C@@H](Cc1ccccc1)C(N)=O [compound 48, [N-allyl-Dmt^1]EM-2] | 0.45 nM | 560 nM | > 10000 nM | > 10000 nM
27 | C=CCNC(Cc1c(C)cc(O)cc1C)C(=O)NCCCCCCNC(=O)C(Cc1c(C)cc(O)cc1C)NCC=C (stereo not shown) [compound 49, 1,6-bis[N-allyl-Dmt-NH]hexane] | 12.4 nM | 51.5 nM | > 10000 nM | > 10000 nM
28 | C=CCNC(Cc1c(C)cc(O)cc1C)C(=O)NCCCc1[nH]c(=O)c(CCCNC(=O)C(Cc2c(C)cc(O)cc2C)NCC=C)nc1C (stereo not shown) [compound 50, 3,6-bis[N-allyl-Dmt-NH-propyl]-5-methyl-2(1H)-pyrazinone] | 6.94 nM | 77.8 nM | > 10000 nM | > 10000 nM
29 | Cc1cc(O)cc(C)c1C[C@H](N)C(=O)NCCNC(=O)[C@@H](N)Cc1c(C)cc(O)cc1C [compound 51, Dmt-NH-(CH2)2-NH-Dmt] | 1.43 nM | 116 nM | 2840 nM | > 10000 nM
30 | Cc1cc(O)cc(C)c1C[C@H](N)C(=O)NCCCCNC(=O)[C@@H](N)Cc1c(C)cc(O)cc1C [compound 52, Dmt-NH-(CH2)4-NH-Dmt] | 0.041 nM | 53.4 nM | 5.33 nM | > 10000 nM
31 | Cc1cc(O)cc(C)c1C[C@H](N)C(=O)NCCCCCCNC(=O)[C@@H](N)Cc1c(C)cc(O)cc1C [compound 53, Dmt-NH-(CH2)6-NH-Dmt] | 0.053 nM | 46.1 nM | 3.08 nM | > 10000 nM
32 | Cc1cc(O)cc(C)c1CC(N)C(=O)NCCc1[nH]c(=O)c(CCNC(=O)C(N)Cc2c(C)cc(O)cc2C)nc1C (stereo not shown) [compound 56, 3,6-bis[Dmt-NH(CH2)2]-5-methyl-2(1H)-pyrazinone] |  | 7.26 nM | 12.9 nM | > 10000 nM
33 | Cc1cc(O)cc(C)c1C[C@H](N)C(=O)N1Cc2ccccc2C[C@H]1C(=O)NCCCCCCNC(=O)[C@@H]1Cc2ccccc2CN1C(=O)[C@@H](N)Cc1c(C)cc(O)cc1C [compound 67, bis[Dmt-Tic-NH]hexane] | 1.79 nM | 0.129 nM |  | > 10000 nM
34 | H-Dmt-Pro-Phe-NH-4-Pyr [compound 25] |  | 52.6 nM | 11.8 nM | > 10000 nM
